Measured values from ChEMBL document CHEMBL6134895, “Strategic Design and Optimization of Umifenovir Analogues: Balancing Antiviral Efficacy and hERG Toxicity against SARS-CoV-2” (J Med Chem, 2025).
pIC50: −log10 of the molar value. Active and inactive are the calls of the source. The rule behind the calls is not given here.

Columns and labels:
SARS-CoV-2 [1] = test: Antiviral activity against SARS CoV-2 Wuhan infected in African green monkey Vero E6 cells assessed as decrease in green fluorescence at 0.5 uM incubated for 48 hrs by confocal microscopy; assay type: functional, organism-based; settings: Severe acute respiratory syndrome coronavirus 2
[2] = Microsomal stability in mouse liver microsomes assessed as intrinsic clearance measured per mg protein at 100 uM preincubated for 15 mins followed by NADPH addition measured up to 60 mins by LC-MS/MS analysis; assay type: ADME, Microsome; settings: time < 75 min, read-out: CLH
SARS-CoV-2 [3] = test: (§1) Antiviral activity against SARS CoV-2 Wuhan infected in African green monkey Vero E6 cells assessed as inhibition of viral replication pretreated for 15 mins followed by compound removal and induction of viral infection for 1 hr and subsequent removal of inoculum and further addition of media containing compound measured after 24 hrs by cell-based ELISA; assay type: functional, organism-based; settings: for pIC50: Severe acute respiratory syndrome coronavirus 2, Wuhan, Vero C1008
SARS-CoV-2 [4] = test: Antiviral activity against SARS CoV-2 Wuhan infected in African green monkey Vero E6 cells assessed as decrease in viral particles at 0.5 uM incubated for 48 hrs by confocal microscopy; assay type: functional, organism-based; settings: Severe acute respiratory syndrome coronavirus 2
[5] = Microsomal stability in human liver microsomes assessed as intrinsic clearance measured per mg protein at 100 uM preincubated for 15 mins followed by NADPH addition measured up to 60 mins by LC-MS/MS analysis; assay type: ADME, Microsome; settings: time < 75 min, read-out: CLH
[6] = Half life in female C57BL/6 mouse at 2 mg/kg, iv; assay type: ADME, organism-based; settings: in vivo
[7] = Microsomal stability in human liver microsomes assessed as compound remaining at 100 uM preincubated for 15 mins followed by NADPH addition measured after 60 mins by LC-MS/MS analysis; assay type: ADME, Microsome; settings: time 75 min, read-out: Stability
[8] = Oral bioavailability in female C57BL/6 mouse at 20 mg/kg; assay type: ADME, organism-based; settings: in vivo
[9] = Clearance in female C57BL/6 mouse at 2 mg/kg, iv; assay type: ADME, organism-based; settings: in vivo
SARS-CoV-2 [10] = test: Potency index, ratio of Arbidol IC50 to test compound IC50 for antiviral activity against SARS CoV-2 Wuhan infected in African green monkey Vero E6 cells assessed as inhibition of viral replication pretreated for 15 mins followed by compound removal and induction of viral infection for 1 hr and subsequent removal of inoculum and further addition of media containing compound measured after 24 hrs …; assay type: functional, Severe acute respiratory syndrome coronavirus 2; settings: time 24.25 hrs
[11] = Microsomal stability in human liver microsomes assessed as half life at 100 uM preincubated for 15 mins followed by NADPH addition measured up to 60 mins by LC-MS/MS analysis; assay type: ADME, Microsome; settings: time < 75 min
[12] = Tmax in female C57BL/6 mouse at 20 mg/kg, po; assay type: ADME, organism-based; settings: in vivo
[13] = AUC (0 to infinity) in female C57BL/6 mouse at 20 mg/kg, po; assay type: ADME, organism-based; settings: in vivo
[14] = Stability in human plasma assessed as half life at 2 uM measured up to 120 mins by LC-MS/MS analysis; assay type: ADME, cell-free
SARS-CoV-2 [15] = test: Antiviral activity against SARS CoV-2 Wuhan infected in African green monkey Vero E6 cells assessed as decrease in spike protein expression at 0.5 uM incubated for 48 hrs by immunofluorescence based analysis; assay type: functional, organism-based; settings: Severe acute respiratory syndrome coronavirus 2
Vero C1008 [16] = test: (§2) Cytotoxicity against African green monkey Vero E6 cells assessed as cell viability at 5 uM incubated for 48 hrs by MTT assay; assay type: toxicity, cell-based; settings: chlorocebus sabaeus, vero c1008, 48 h, 5 µM
[17] = Stability in mouse plasma assessed as half life at 2 uM measured up to 120 mins by LC-MS/MS analysis; assay type: ADME, cell-free
[18] = biological target: T1, Voltage-gated inwardly rectifying potassium channel KCNH2 (Homo sapiens, UniProt Q12809); test: Inhibition of hERG extracted from membrane (unknown origin) incubated for 4 hrs by fluorescence polarization assay; assay type: toxicity, cell membranes
[19] = Cmax in female C57BL/6 mouse at 20 mg/kg, po; assay type: ADME, organism-based; settings: in vivo
[20] = Volume of distribution at steady state in female C57BL/6 mouse at 2 mg/kg, iv; assay type: ADME, organism-based; settings: in vivo, read-out: Vdss
[21] = Stability in human plasma assessed as compound remaining at 2 uM measured after 60 mins by LC-MS/MS analysis; assay type: ADME, cell-free; settings: read-out: Stability
[22] = Microsomal stability in mouse liver microsomes assessed as half life at 100 uM preincubated for 15 mins followed by NADPH addition measured up to 60 mins by LC-MS/MS analysis; assay type: ADME, Microsome; settings: time < 75 min
[23] = Lipophilicity, LogD of compound in sodium phosphate buffer/n-octanol incubated for 3 hrs by LC-UV analysis; assay type: physicochemical
[24] = AUC (0 to infinity) in female C57BL/6 mouse at 2 mg/kg, iv; assay type: ADME, organism-based; settings: in vivo
[25] = Stability in mouse plasma assessed as compound remaining at 2 uM measured after 60 mins by LC-MS/MS analysis; assay type: ADME, cell-free; settings: read-out: Stability
[26] = Microsomal stability in mouse liver microsomes assessed as compound remaining at 100 uM preincubated for 15 mins followed by NADPH addition measured after 60 mins by LC-MS/MS analysis; assay type: ADME, Microsome; settings: time 75 min, read-out: Stability
SARS-CoV-2 [27] = test: as §1, with “virus inactivation at 5 uM” for “inhibition of viral replication”, “48” for “24”, “RT-qPCR analysis relative to control” for “cell-based ELISA”; assay type: functional, Severe acute respiratory syndrome coronavirus 2; settings: time 48.25 hrs
[28] = biological target: T1, Voltage-gated inwardly rectifying potassium channel KCNH2; test: Inhibition of hERG; assay type: toxicity
SARS-CoV-2 [29] = test: Antiviral activity against SARS CoV-2 Wuhan infected in African green monkey Vero E6 cells assessed as decrease in green fluorescence at 0.7 uM incubated for 48 hrs by confocal microscopy; assay type: functional, organism-based; settings: Severe acute respiratory syndrome coronavirus 2
SARS-CoV-2 [30] = test: Antiviral activity against SARS CoV-2 Wuhan infected in African green monkey Vero E6 cells assessed as decrease in spike protein expression at 0.7 uM incubated for 48 hrs by immunofluorescence based analysis; assay type: functional, organism-based; settings: Severe acute respiratory syndrome coronavirus 2
SARS-CoV-2 [31] = test: Antiviral activity against SARS CoV-2 Wuhan infected in African green monkey Vero E6 cells assessed as decrease in viral particles at 0.7 uM incubated for 48 hrs by confocal microscopy; assay type: functional, organism-based; settings: Severe acute respiratory syndrome coronavirus 2
Vero C1008 [32] = test: Cytotoxicity against African green monkey Vero E6 cells assessed as cell viability at 1 uM incubated for 48 hrs by MTT assay; assay type: toxicity, cell-based; settings: chlorocebus sabaeus, vero c1008, 48 h
SARS-CoV-2 [33] = test: as §1, with “virus inactivation at 10 uM” for “inhibition of viral replication”, “48” for “24”, “RT-qPCR analysis relative to control” for “cell-based ELISA”; assay type: functional, Severe acute respiratory syndrome coronavirus 2; settings: time 48.25 hrs
[34] = as §2; assay type: toxicity, cell-based, Vero C1008; settings: chlorocebus sabaeus, Vero E6 cells, read-out: Activity
SARS-CoV-2 [35] = test: as §1, with “virus inactivation at 1 uM” for “inhibition of viral replication”, “48” for “24”, “RT-qPCR analysis relative to control” for “cell-based ELISA”; assay type: functional, Severe acute respiratory syndrome coronavirus 2; settings: time 48.25 hrs

T1 sequence (Q12809 whole entry): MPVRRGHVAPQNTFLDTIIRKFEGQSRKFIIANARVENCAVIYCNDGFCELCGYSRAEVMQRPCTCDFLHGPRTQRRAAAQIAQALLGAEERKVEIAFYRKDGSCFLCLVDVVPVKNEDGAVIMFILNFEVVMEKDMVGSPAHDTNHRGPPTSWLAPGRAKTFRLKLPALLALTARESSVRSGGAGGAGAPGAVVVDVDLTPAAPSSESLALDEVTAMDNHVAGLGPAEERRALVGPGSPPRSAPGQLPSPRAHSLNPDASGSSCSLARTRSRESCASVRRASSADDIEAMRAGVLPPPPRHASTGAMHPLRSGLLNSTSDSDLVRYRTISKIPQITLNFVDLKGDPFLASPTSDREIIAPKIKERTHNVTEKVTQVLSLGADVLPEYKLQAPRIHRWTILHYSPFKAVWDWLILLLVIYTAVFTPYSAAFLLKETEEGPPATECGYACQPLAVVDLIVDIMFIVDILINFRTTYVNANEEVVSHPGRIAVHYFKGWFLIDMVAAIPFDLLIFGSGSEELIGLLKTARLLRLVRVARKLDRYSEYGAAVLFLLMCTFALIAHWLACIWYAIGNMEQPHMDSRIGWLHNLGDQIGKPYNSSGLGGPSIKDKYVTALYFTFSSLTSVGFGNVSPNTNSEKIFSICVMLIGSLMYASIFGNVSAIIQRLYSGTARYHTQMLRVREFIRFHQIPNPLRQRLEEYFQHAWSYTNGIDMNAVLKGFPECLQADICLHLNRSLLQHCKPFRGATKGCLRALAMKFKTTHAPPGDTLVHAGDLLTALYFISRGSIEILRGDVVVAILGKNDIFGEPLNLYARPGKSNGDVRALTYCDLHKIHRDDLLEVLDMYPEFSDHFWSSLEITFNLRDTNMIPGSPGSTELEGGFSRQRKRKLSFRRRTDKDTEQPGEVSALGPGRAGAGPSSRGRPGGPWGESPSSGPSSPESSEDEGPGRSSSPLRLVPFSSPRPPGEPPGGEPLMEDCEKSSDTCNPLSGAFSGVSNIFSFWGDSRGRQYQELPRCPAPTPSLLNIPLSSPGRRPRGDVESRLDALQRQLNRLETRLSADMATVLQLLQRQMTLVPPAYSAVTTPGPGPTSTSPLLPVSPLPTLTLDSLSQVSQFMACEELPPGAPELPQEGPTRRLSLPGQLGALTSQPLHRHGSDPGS

SMILES | microsomal CLint at 100 µM [2] | pIC50 (SARS-CoV-2 [3]) | microsomal CLint at 100 µM [5] | remaining at 1 h, 100 µM [7] | Ratio IC50 (SARS-CoV-2 [10]) | half-life at 100 µM [11] | half-life at 2 µM [14] | Activity (Vero C1008 [16]) | half-life at 2 µM [17] | pIC50 [18] | remaining at 1 h, 2 µM [21] | half-life at 100 µM [22] | logD at 3 h [23] | remaining at 1 h, 2 µM [25] | remaining at 1 h, 100 µM [26] | also measured
Cc1ccc(Cn2c(CSc3c(C)cc(C)cc3C)c(C(=O)N3CCC(N4CCOCC4)CC3)c3cc(O)c(Br)cc32)cc1 | 31.3 µL/min/mg | 6.17 | 35 µL/min/mg | 11.4% | ~13 | 19.8 min | 41.1 min | Non-toxic | 53.5 min | 4.80 | 27.1% | 26.9 min | 2.45 | 44% | 14.7% | Activity (SARS-CoV-2 [1]): Active; Activity (SARS-CoV-2 [4]): Active; Activity Was Comparable To Remdesivir; half-life [6]: 86.4 min; bioavailability [8]: 33.9%; clearance [9]: 92.4 mL/min/kg; Tmax [12]: 120 min; AUC(0-inf) [13]: 1190 ng·h/mL; Activity (SARS-CoV-2 [15]): Active; Cmax [19]: 148 ng/mL; Vd [20]: 13.4 L/kg; AUC(0-inf) [24]: 352 ng·h/mL
CCOC(=O)c1c(CSc2ccccc2)n(C)c2cc(Br)c(O)c(CN(C)C)c12 [UMIFENOVIR] |  | 5.05 |  |  |  |  |  | Non-toxic |  | 6.27 |  |  |  |  |  | Activity (SARS-CoV-2 [27]): <90%; pIC50 [28]: 6.27
Cc1ccc(Cn2c(CSc3c(C)cc(C)cc3C)c(C(=O)Nc3cnn(C)c3)c3cc(O)c(Br)cc32)cc1 | 25.8 µL/min/mg | 6.15 | 28.3 µL/min/mg | 16.5% | ~13 | 24.5 min | 42 min | Non-toxic | 52.2 min | < 4.52 | 28.6% | 22.1 min | 1.93 | 42.5% | 18% | Activity (SARS-CoV-2 [29]): Active; Activity (SARS-CoV-2 [30]): Active; Activity (SARS-CoV-2 [31]): Active; Activity Was Comparable To Remdesivir
CCOC(=O)c1c(CSc2ccc(C)cc2C)n(C)c2cc(Br)c(O)cc12 |  |  |  |  |  |  |  |  |  |  |  |  |  |  |  | inhibition (SARS-CoV-2 [3]; Severe acute respiratory syndrome coronavirus 2, time 24.25 hrs): inactive; Activity (Vero C1008 [32]): Non-toxic; Activity (SARS-CoV-2 [33]): >99.9%; viability at 48 h, 5 µM [34]: 85%; Activity (SARS-CoV-2 [35]): >95%
